Measurements reported in paper PMC8812569, “A widely distributed phosphate-insensitive phosphatase presents a route for rapid organophosphorus remineralization in the biosphere” (Proceedings of the National Academy of Sciences of the …, 2022).

Legend:
Assay in all cases: pNP release at […] nm in whole cells of complemented P. putida phoX mutant
PhoA1^Fj = molecular target: T1, PhoA1^Fj (Flavobacterium johnsoniae, UniProt A5FEV6); format: cell-based, Pseudomonas putida; conditions: 10 mM pNPP; growth medium or Tris-HCl pH 9.4; 28 °C
T1 construct: gene Fjoh_3249; full gene expressed from pBBR1MCS-km in P. putida BIRD-1 phoX mutant; whole-cell assay
T1 sequence (A5FEV6 19-607): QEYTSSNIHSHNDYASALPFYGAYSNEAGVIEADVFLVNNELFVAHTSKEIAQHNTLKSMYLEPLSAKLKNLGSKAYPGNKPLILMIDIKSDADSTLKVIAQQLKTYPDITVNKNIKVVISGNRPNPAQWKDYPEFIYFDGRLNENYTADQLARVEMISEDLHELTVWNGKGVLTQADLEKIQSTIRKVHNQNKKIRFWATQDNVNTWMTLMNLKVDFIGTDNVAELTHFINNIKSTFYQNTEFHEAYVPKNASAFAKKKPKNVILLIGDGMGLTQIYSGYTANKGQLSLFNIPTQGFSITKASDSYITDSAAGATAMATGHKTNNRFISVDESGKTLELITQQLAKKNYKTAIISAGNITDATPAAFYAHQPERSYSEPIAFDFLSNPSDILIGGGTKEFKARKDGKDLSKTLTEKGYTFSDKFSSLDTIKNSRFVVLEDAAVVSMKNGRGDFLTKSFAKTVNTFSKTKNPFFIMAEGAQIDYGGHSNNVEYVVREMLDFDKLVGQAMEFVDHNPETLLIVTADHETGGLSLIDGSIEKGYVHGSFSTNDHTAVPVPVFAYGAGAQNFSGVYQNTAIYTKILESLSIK

PafA^Fj = molecular target: T2, PafA^Fj (Flavobacterium johnsoniae, UniProt A5FP14); format: cell-based; conditions: 10 mM pNPP; growth medium or Tris-HCl pH 9.4; 28 °C
T2 construct: gene Fjoh_0023; full gene expressed from pBBR1MCS-km in P. putida BIRD-1 phoX mutant; whole-cell assay
T2 sequence (A5FP14 19-539): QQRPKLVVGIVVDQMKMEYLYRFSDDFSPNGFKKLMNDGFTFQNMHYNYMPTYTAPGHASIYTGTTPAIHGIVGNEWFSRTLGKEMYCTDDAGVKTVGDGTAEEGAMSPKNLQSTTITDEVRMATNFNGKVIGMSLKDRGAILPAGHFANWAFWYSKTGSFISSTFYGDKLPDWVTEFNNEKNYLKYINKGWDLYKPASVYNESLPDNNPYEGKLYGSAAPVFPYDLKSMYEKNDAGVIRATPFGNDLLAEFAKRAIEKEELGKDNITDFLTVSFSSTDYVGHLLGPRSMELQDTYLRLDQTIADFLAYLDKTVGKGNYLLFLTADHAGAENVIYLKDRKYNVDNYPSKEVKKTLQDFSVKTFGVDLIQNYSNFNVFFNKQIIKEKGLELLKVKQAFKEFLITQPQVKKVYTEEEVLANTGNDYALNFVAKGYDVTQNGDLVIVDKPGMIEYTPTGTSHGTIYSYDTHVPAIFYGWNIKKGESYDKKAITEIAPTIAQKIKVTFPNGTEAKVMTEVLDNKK

PhoA2^Fj = molecular target: T3, PhoA2^Fj (Flavobacterium johnsoniae, UniProt A5FF14); format: cell-based; conditions: 10 mM pNPP; growth medium or Tris-HCl pH 9.4; 28 °C
T3 construct: gene Fjoh_3187; full gene expressed from pBBR1MCS-km in P. putida BIRD-1 phoX mutant; whole-cell assay
T3 sequence (A5FF14 27-468): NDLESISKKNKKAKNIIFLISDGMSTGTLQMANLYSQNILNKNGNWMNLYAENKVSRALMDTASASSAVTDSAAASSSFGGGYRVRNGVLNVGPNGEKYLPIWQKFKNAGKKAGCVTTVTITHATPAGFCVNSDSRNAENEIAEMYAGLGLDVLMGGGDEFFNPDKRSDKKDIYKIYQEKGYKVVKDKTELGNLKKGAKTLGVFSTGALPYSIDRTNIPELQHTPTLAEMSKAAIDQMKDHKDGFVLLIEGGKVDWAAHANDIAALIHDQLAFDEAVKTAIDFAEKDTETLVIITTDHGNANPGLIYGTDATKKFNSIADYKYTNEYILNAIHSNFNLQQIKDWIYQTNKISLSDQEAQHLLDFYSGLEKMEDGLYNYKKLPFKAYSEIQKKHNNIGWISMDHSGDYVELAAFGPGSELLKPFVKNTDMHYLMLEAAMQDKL

PhoA^Ec = molecular target: T4, PhoA^Ec (Escherichia coli, UniProt P00634); format: cell-based, Pseudomonas putida; conditions: 10 mM pNPP; growth medium or Tris-HCl pH 9.4; 28 °C
T4 construct: full gene expressed in P. putida BIRD-1 phoX mutant; whole-cell assay

PafA^Cp2 = molecular target: T5, PafA^Cp2 (Chitinophaga pinensis, UniProt A0A979G1Z1); format: cell-based; conditions: 10 mM pNPP
T5 construct: gene Cpin_1665; synthesized gene expressed in P. putida BIRD-1 phoX mutant; whole-cell assay
T5 sequence (A0A979G1Z1 29-568): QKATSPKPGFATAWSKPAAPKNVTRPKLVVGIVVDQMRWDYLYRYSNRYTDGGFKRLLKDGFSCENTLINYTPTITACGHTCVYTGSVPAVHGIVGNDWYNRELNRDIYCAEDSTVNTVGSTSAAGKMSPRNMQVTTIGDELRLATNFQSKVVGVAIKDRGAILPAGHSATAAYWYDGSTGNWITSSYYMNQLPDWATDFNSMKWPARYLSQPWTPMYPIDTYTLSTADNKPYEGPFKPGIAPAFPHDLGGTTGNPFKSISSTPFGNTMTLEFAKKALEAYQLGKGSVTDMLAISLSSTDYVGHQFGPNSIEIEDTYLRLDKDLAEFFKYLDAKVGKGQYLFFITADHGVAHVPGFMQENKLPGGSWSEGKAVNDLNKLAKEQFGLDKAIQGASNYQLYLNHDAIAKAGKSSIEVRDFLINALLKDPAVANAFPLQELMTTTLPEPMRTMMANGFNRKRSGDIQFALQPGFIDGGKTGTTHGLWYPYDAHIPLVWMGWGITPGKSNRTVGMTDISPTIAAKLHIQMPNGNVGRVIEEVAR

PafA^Cp1 = molecular target: T6, PafA^Cp1 (Chitinophaga pinensis, UniProt A0A979GMC5); format: cell-based; conditions: 10 mM pNPP
T6 construct: gene Cpin_0724; synthesized gene expressed in P. putida BIRD-1 phoX mutant; whole-cell assay
T6 sequence (A0A979GMC5 26-545): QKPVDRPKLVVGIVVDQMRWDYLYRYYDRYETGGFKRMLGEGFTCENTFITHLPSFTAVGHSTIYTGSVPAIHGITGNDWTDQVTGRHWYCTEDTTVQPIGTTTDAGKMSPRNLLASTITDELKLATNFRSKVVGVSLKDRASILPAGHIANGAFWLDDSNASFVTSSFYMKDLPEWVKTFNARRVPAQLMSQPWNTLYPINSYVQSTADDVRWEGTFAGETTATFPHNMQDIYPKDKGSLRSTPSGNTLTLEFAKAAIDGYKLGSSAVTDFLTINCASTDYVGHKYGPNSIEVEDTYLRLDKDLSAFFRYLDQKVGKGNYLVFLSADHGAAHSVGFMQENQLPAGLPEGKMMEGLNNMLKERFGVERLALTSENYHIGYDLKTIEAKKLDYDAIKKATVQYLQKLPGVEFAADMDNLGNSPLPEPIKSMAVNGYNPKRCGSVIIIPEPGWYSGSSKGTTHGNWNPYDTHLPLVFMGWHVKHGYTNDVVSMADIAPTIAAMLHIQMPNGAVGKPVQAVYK

T4 sequence (P00634 22-471): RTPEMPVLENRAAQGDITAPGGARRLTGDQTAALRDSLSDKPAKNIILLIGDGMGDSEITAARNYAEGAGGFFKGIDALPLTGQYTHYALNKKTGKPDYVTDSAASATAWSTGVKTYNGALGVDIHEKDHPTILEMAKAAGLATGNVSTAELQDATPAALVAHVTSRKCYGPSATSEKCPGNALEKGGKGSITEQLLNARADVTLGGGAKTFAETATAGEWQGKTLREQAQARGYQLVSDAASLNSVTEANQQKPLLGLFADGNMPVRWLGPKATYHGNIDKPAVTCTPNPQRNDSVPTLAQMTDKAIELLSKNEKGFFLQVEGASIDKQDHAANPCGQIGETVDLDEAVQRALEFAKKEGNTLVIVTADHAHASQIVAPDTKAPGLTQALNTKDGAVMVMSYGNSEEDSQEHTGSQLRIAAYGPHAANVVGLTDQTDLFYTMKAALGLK

For `O=[N+]([O-])c1ccc(OP(=O)(O)O)cc1` [para-nitrophenyl phosphate], the PME activity (PhoA1^Fj) was “cells producing PhoA1^Fj (+pBXphoA1^Fj), PhoA2^Fj (+pBXphoA2^Fj), or PafA^Fj (+pBXpafA^Fj) also restored PME activity”, the PME activity (PafA^Fj) was “or PafA^Fj (+pBXpafA^Fj) also restored PME activity, confirming their function as PMEs” and the PME activity (PhoA2^Fj) was “cells producing PhoA1^Fj (+pBXphoA1^Fj), PhoA2^Fj (+pBXphoA2^Fj), or PafA^Fj (+pBXpafA^Fj) also restored PME activity”. For the same compound, the PME activity (PhoA^Ec) was “Plasmid copies of either phoX^BIRD (+pBXphoX^BIRD) or the E. coli phoA (+pBXphoA^Ec) restored PME activity”, the PME activity (PafA^Cp2) was “demonstrating both are functional Pi-insensitive PMEs” and the PME activity (PafA^Cp1) was “demonstrating both are functional Pi-insensitive PMEs”.
